Results reported in US20040038950A1, “Pharmaceutical composition for treating IL-1 related diseases or disorders” (priority 2002, published 2004).

What was measured:
[1] = tested on: TIMP-1; test: Western blot of TIMP-1 in chondrocyte lysates; format: cell-based, human; details: 0, 10 or 100 μ DHEA, three days
Description: (§1) Chondrocytes were isolated from the knee joint of patient undergoing a knee replacement due to osteoarthritis. Cartilage was digested with 0.2% protease Type XIV (Sigma) for 1 hour, followed by 3-hour incubation with 0.2% collagenase Type IA (Sigma) at 37° C. Following the incubation, the undigested cartilage fragments were removed using a 70 μm Nylon sieve. Chondrocytes were washed with DPBS and maintained in monolayer culture for 7 days in Dulbecco's modified Eagle's medium (DMEM; Life Technologies Inc.) which contained 10% fetal bovine serum (FBS; Life Technologies), 100 units/ml penicillin-streptomycin (Life Technologies) and 25 μg/ml L-ascorbic acid (Sigma). All experiments were performed with primary or first passage cells. The preparation of chondrocytes in alginate beads was carried out with 4×10^6 cells per 1 ml of alginate. Alginate cultures were maintained for 7 days at 37° C., 5% CO2 and 95% humidity and incubated with various concentrations of DHEA (0, 10, 50 or 100 μM) for a varing period of time. DHEA was purchased from Sigma and used after dissolving either in ethanol or dimethyl sulfoxide (DMSO). […]
To investigate the effect of DHEA on the protein concentration, Western blot analysis was performed. […] Protein concentration of the supernatant was determined by Bio-Rad protein assay (Bio-Rad, USA) using bovine serum albumin (BSA) as a standard. […]

[2] = tested on: TIMP-1 mRNA; test: RT-PCR of TIMP-1 mRNA in chondrocytes; format: cell-based, human
Description: (§2) Chondrocytes were isolated from the knee joint of patient undergoing a knee replacement due to osteoarthritis. Cartilage was digested with 0.2% protease Type XIV (Sigma) for 1 hour, followed by 3-hour incubation with 0.2% collagenase Type IA (Sigma) at 37° C. Following the incubation, the undigested cartilage fragments were removed using a 70 μm Nylon sieve. Chondrocytes were washed with DPBS and maintained in monolayer culture for 7 days in Dulbecco's modified Eagle's medium (DMEM; Life Technologies Inc.) which contained 10% fetal bovine serum (FBS; Life Technologies), 100 units/ml penicillin-streptomycin (Life Technologies) and 25 μg/ml L-ascorbic acid (Sigma). All experiments were performed with primary or first passage cells. The preparation of chondrocytes in alginate beads was carried out with 4×10^6 cells per 1 ml of alginate. Alginate cultures were maintained for 7 days at 37° C., 5% CO2 and 95% humidity and incubated with various concentrations of DHEA (0, 10, 50 or 100 μM) for a varing period of time. DHEA was purchased from Sigma and used after dissolving either in ethanol or dimethyl sulfoxide (DMSO). After a desired incubation period, cells were harvested by solubilizing the alginate beads in citrate buffer (55 mM sodium citrate, 0.15 M NaCl, pH 7.0) for 10 min at 37° C. and by centrifugation (300 g, 5 min).
(§3) Total RNA from chondrocytes was extracted using RNeasy Mini Kit (QIAGEN). Reverse transcription from 1 μg of total RNA was conducted using First Strand cDNA Synthesis Kit (MBI Fermentas) according to manufacturer's recommendation with random hexamers. The resulting cDNA was then amplified by polymerase chain reaction using AccuPower PCR Premix (Bioneer, Korea) in a final volume of 20 μl using three thermocycler temperatures (30 sec at […], 30 sec at 60° C., and 30 sec at […]). All reactions were determined to be in the linear range of amplification with the cycle number ranging from 14 to 30. The PCR products were analyzed by separation on a 2% agarose gel followed by ethidium bromide staining. Following electrophoresis, photographs were taken and analyzed using a densitometric program (TINA; Raytest Isotopenmeβgerate, Germany). Integrated density values for the genes in question were then normalized to the glyceraldehyde-3-phosphate dehydrogenase (GAPDH) values for a semiquantitative assessment. After normalizing with respect to GAPDH, percentage increase or decrease was determined. Each experiment was repeated at least three times. […]

[3] = tested on: MMP-3 mRNA; test: RT-PCR of MMP-3 mRNA in chondrocytes; format: cell-based, human
Description: as §2
Total RNA from chondrocytes was extracted using RNeasy Mini Kit (QIAGEN). Reverse transcription from 1 μg of total RNA was conducted using First Strand cDNA Synthesis Kit (MBI Fermentas) according to manufacturer's recommendation with random hexamers. […] All reactions were determined to be in the linear range of amplification with the cycle number ranging from 14 to 30. The PCR products were analyzed by separation on a 2% agarose gel followed by ethidium bromide staining. Following electrophoresis, photographs were taken and analyzed using a densitometric program (TINA; Raytest Isotopenmeβgerate, Germany). […] After normalizing with respect to GAPDH, percentage increase or decrease was determined. […]

[4] = tested on: MMP-1 mRNA; test: RT-PCR of MMP-1 mRNA in chondrocytes; format: cell-based, human; details: 100 μM
Description: as §2, §3

[5] = tested on: human chondrocyte; test: GAG assay (35SO4-labeled proteoglycan synthesis) in chondrocyte alginate culture; format: cell-based; details: DHEA present in chondrocyte cultures, same time period
Description: as §1, with “alginate.” for “alginate. Alginate cultures were maintained for 7 days at 37° C., 5% CO2 and 95% humidity and incubated with various concentrations of DHEA (0, 10, 50 or 100 μM) for a varing period of time. DHEA was purchased from Sigma and used after dissolving either in ethanol or dimethyl sulfoxide (DMSO).”
For cell proliferation, [^3H]thymidine assay was performed on a 96-well plate (Nunc) with one alginate bead per well. […] After collecting the cells using a cell harvester (Wallac), [^3H]thymidine uptake was quantitated by measuring β emission on a β-counter (Wallac). […] The ^35SO4-labeled proteoglycan content was measured by a liquid scintillation counter (Wallac). The total cellular DNA was determined by Indole assay.

## C[C@]12CC[C@H](O)CC1=CC[C@@H]1[C@@H]2CC[C@]2(C)C(=O)CC[C@@H]12 [DHEA, dehyroepiandrosterone]
[1]
  translational level of mature TIMP-1 (Western blot): increased with increasing concentration of DHEA
[2]; 50 μM, 72 hours
  TIMP-1 mRNA expression, maximum rate of enhancement: 120%
[2]; 100 μM, after 72 hr
  TIMP-1 mRNA expression, up-regulation: 129%
[2]; 100 μM, up to 48 hr
  TIMP-1 mRNA expression: unaffected
[2]; DHEA concentration above 100 μM
  TIMP-1 mRNA enhancement effect: diminished
[3]; 100 μM, after 24 hr of culture
  MMP-3 mRNA expression, decreased by: 73%
[3]; 100 μM, after 72 hr
  inhibitory activity of DHEA on the MMP-3, increase by: 131%
[3]; 10-100 μM, 72 hours, not dose-dependent
  MMP-3 production, inhibition: 82-93%
[4]; 72 hours
  MMP-1 level, inhibition: 48%
[4]; after 24 hr
  MMP-1 mRNA level, reduced by: 43%
[4]; after 48 hr
  MMP-1 mRNA level, reduced by: 35%
[4]; after 72 hr
  MMP-1 mRNA expression: markly inhibited
[5]
  rate of proteoglycan synthesis: remained unchanged
